Measurements: publication PMC7377239, “Cardiovascular Effects of Polychlorinated Biphenyls and Their Major Metabolites” (Environmental Health Perspectives, 2020)
Where two headings read alike, the source gives them in different places.

Assays:
[1] = tested on: iCell cardiomyocytes (human iPSC-derived cardiomyocytes); experiment: High-content imaging of cytotoxicity and mitochondrial integrity in iPSC-CMs; type: cell-based; details: Homo sapiens, Cardiomyocyte; for viability at 0.01 µM / activity at 0.01 µM / viability at 0.1 µM / activity at 0.1 µM / viability at 1 µM / activity at 1 µM / viability at 10 µM / activity at 10 µM / viability at 100 µM / activity at 100 µM: 0.00 µM = 100.00; for viability at 0.1 µM / activity at 0.1 µM: 0.10 µM
How it was run: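 This assay measured cytotoxicity and mitochondrial integrity in iPSC cardiomyocytes held in 40μL maintenance medium. After compound exposure, a 2× staining solution with Hoechst 33342 (4μg/mL) and MitoTracker™ Orange (0.4μM) was applied for 15 min at 37°C. Cells were washed, fixed with 3.7% formaldehyde, imaged on DAPI and Cy3 channels, and scored in MetaXpress®.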

HUVECs = experiment: High-content imaging cytotoxicity in HUVECs, 24 h; type: cell-based, human; details: Homo sapiens, HUVEC, 24 h, HUVECs; for viability at 0.01 µM / activity at 0.01 µM: concentration 0.01 µM; for viability at 0.01 µM / activity at 0.01 µM / viability at 0.1 µM / activity at 0.1 µM / viability at 1 µM / activity at 1 µM / viability at 10 µM / activity at 10 µM / viability at 100 µM / activity at 100 µM: 0.00 µM = 100.00; for viability at 0.1 µM / activity at 0.1 µM: concentration 0.10 µM; for viability at 1 µM / activity at 1 µM: concentration 1.00 µM; for viability at 10 µM / activity at 10 µM: concentration 10.00 µM; for viability at 100 µM / activity at 100 µM: concentration 100.00 µM; for minimal effective concentration: MAX 100.00
How it was run: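 Confluent HUVEC monolayers, passages 1–5, received test chemicals for 24 h. Cytotoxicity was scored from triple-stain high-content images, with PODs defined by a one-SD deviation from 0.5% DMSO vehicle controls.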

[2] = 1.5 h, 90min, read-out: cm.cam.90min
[3] = 1.5 h, 90min, read-out: cm.mii.90min
[4] = 1.5 h, 90min, read-out: cm.mito.90min
[5] = 1.5 h, 90min, read-out: cm.tc.90min
[6] = 24 h, 24hrs, read-out: cm.cam.24hrs
[7] = 24 h, 24hrs, read-out: cm.mii.24hrs
[8] = 24 h, 24hrs, read-out: cm.mito.24hrs
[9] = 24 h, 24hrs, read-out: cm.tc.24hrs
[10] = 24 hr, read-out: huvec.cyto.24hr
[11] = 24 hr, read-out: huvec.mito.24hr
[12] = 24 hr, read-out: huvec.mitoint.24hr
[13] = 24 hr, read-out: huvec.nma.24hr
[14] = 24 hrs, read-out: huvec.tc.24hrs

`Clc1cc(Cl)c(-c2cc(Cl)c(Cl)cc2Cl)cc1Cl` [PCB153] gave a viability at 0.01 µM [1, 2] of 98.3%, an activity at 0.01 µM [1, 3] of 112% and an activity at 0.01 µM [1, 4] of 98.2%. For the same compound, the viability at 0.01 µM [1, 5] was 98.1%, the viability at 0.1 µM [1, 2] was 96.8% and the activity at 0.1 µM [1, 3] was 109%. It also gave an activity at 0.1 µM [1, 4] of 96.6%, a viability at 0.1 µM [1, 5] of 96.6% and a viability at 1 µM [1, 2] of 102%. It also gave an activity at 1 µM [1, 3] of 112%, an activity at 1 µM [1, 4] of 102% and a viability at 1 µM [1, 5] of 102%. It also gave a viability at 10 µM [1, 2] of 99.4%, an activity at 10 µM [1, 3] of 102% and an activity at 10 µM [1, 4] of 99.5%. The viability at 10 µM [1, 5] was 99.5%, the viability at 100 µM [1, 2] was 1.35% and the activity at 100 µM [1, 3] was 91%. It also gave an activity at 100 µM [1, 4] of 1.22%, a viability at 100 µM [1, 5] of 1.5% and a minimal effective concentration ([1]; 1.5 h, 90min, read-out: cm.cam.90min POD) of 20.6 µM. The minimal effective concentration ([1]; 1.5 h, 90min, read-out: cm.mii.90min POD) was 100 µM, the minimal effective concentration ([1]; 1.5 h, 90min, read-out: cm.mito.90min POD) was 19.8 µM and the minimal effective concentration ([1]; 1.5 h, 90min, read-out: cm.tc.90min POD) was 23.2 µM. The viability at 0.01 µM [1, 6] was 94.6%, the activity at 0.01 µM [1, 7] was 88.6% and the activity at 0.01 µM [1, 8] was 94.7%. It also gave a viability at 0.01 µM [1, 9] of 95.8%, a viability at 0.1 µM [1, 6] of 98.2% and an activity at 0.1 µM [1, 7] of 109%. It also gave an activity at 0.1 µM [1, 8] of 99.3%, a viability at 0.1 µM [1, 9] of 98.3% and a viability at 1 µM [1, 6] of 99.7%. For the same compound, the activity at 1 µM [1, 7] was 80.6%, the activity at 1 µM [1, 8] was 100% and the viability at 1 µM [1, 9] was 99.9%. For the same compound, the viability at 10 µM [1, 6] was 96.8%, the activity at 10 µM [1, 7] was 99.6% and the activity at 10 µM [1, 8] was 95.2%. For the same compound, the viability at 10 µM [1, 9] was 96.5%, the viability at 100 µM [1, 6] was 1.91% and the activity at 100 µM [1, 7] was 23.6%. It also gave an activity at 100 µM [1, 8] of 0.34%, a viability at 100 µM [1, 9] of 1.92% and a minimal effective concentration ([1]; 24 h, read-out: cm.cam.24hrs POD) of 11.6 µM. It also gave a minimal effective concentration ([1]; 24 h, read-out: cm.mii.24hrs POD) of 39.9 µM, a minimal effective concentration ([1]; 24 h, read-out: cm.mito.24hrs POD) of 10.5 µM and a minimal effective concentration ([1]; 24 h, read-out: cm.tc.24hrs POD) of 11.1 µM. For the same compound, the viability at 0.01 µM (HUVECs; [10]) was 89.7%, the activity at 0.01 µM (HUVECs; [11]) was 88.6% and the activity at 0.01 µM (HUVECs; [12]) was 89.5%. It also gave an activity at 0.01 µM (HUVECs; [13]) of 98.4%, a viability at 0.1 µM (HUVECs; [10]) of 85% and an activity at 0.1 µM (HUVECs; [11]) of 83.8%. It also gave an activity at 0.1 µM (HUVECs; [12]) of 93%, an activity at 0.1 µM (HUVECs; [13]) of 97% and a viability at 1 µM (HUVECs; [10]) of 94.2%. For the same compound, the activity at 1 µM (HUVECs; [11]) was 93.9%, the activity at 1 µM (HUVECs; [12]) was 92.2% and the activity at 1 µM (HUVECs; [13]) was 97.3%. It also gave a viability at 10 µM (HUVECs; [10]) of 66.9%, an activity at 10 µM (HUVECs; [11]) of 53.7% and an activity at 10 µM (HUVECs; [12]) of 45.8%. The activity at 10 µM (HUVECs; [13]) was 66.9%, the viability at 100 µM (HUVECs; [10]) was 66.2% and the activity at 100 µM (HUVECs; [11]) was 34.5%. The activity at 100 µM (HUVECs; [12]) was 13.2%, the activity at 100 µM (HUVECs; [13]) was 65.8% and the minimal effective concentration (HUVECs; 24 hr, read-out: huvec.cyto.24hr POD) was 0.0171 µM. For the same compound, the minimal effective concentration (HUVECs; 24 hr, read-out: huvec.mito.24hr POD) was 0.75 µM, the minimal effective concentration (HUVECs; 24 hr, read-out: huvec.mitoint.24hr POD) was 0.83 µM and the minimal effective concentration (HUVECs; 24 hr, read-out: huvec.nma.24hr POD) was 1.01 µM. The viability at 0.01 µM (HUVECs; [14]) was 89.7%, the viability at 0.1 µM (HUVECs; [14]) was 85% and the viability at 1 µM (HUVECs; [14]) was 94.2%. The viability at 10 µM (HUVECs; [14]) was 67%, the viability at 100 µM (HUVECs; [14]) was 66.2% and the minimal effective concentration (HUVECs; 24 hrs, read-out: huvec.tc.24hrs POD) was 0.0171 µM.
